Measured values published in patent US20060252683A1, “Preparation of a peptide compound (SYRAPRO-2000) and its use for the activation of protein phosphatase-2A1 enzyme” (priority 2005, published 2006).

Columns and labels:
protein phosphatase-2A1 [1] = target: T1, protein phosphatase-2A1 (Homo sapiens, UniProt P67775); assay: Assay of purified protein phosphatase-2A1 in vitro with 32P-labeled phosphorylase a as substrate; type: biochemical; design: Protein phosphatase-2A1 purified from CD^4+ T cells as described in materials and method; endogenous in cells; host or cells: Jurkat cells; enzyme purified by DEAE Sepharose, Sephacryl S-300 HR and poly-L-lysine Agarose; conditions: highly purified enzyme from Jurkat cells
Protocol: Protein phosphatase-2A1 purified from CD^4+ T cells as described in materials and method was assayed in the presence of various concentrations of SYRAPRO-2000. 100 percent protein phosphatase-2A1 activity is equivalent to 0.005 unit. Similar result were obtained in 3 independent experiments.
The effect of synthesized SYRAPRO-2000 on purified protein phosphatase-2A1 can be determined in vitro. Protein phosphatase-2A1 can be assayed using ^32P-labeled phosphorylase a as substrate in the presence of various concentrations of SYRAPRO-2000. Protein phosphatase-2A1 is activated in the presence of SYRAPRO-2000.
Protein phosphatase-1 was assayed as described in (Cohen 1988). Protein phosphatase-2B was assayed as described in (Tung 1986). Protein phosphatase-2C was assayed as described in (Tung 1986) except Ca^2+ and calmodulin were omitted. The assay of protein phosphatases-2A1 consisted of 0.02 ml of enzyme solution in 50 mM Imidazole-Cl pH 7.2, 0.2 mM EGTA, 0.1% (v/v) 2-mercaptoethanol and 1 mg/ml bovine serum albumin (Assay Buffer), 0.01 ml of inhibitor-2 at 600 nM in Assay Buffer, 0.01 ml of protamine at 60 μg/ml in Assay Buffer or 0.01 ml of SYRAPRO-2000 at different concentrations in Assay Buffer or 0.01 ml of Assay Buffer alone, 0.02 ml of ^32P-labeled phosphorylase a at 3 mg/ml in Assay Buffer containing 15 mM caffeine. The assay components were preincubated for 10 minutes prior to initiating the reaction with ^32P-labeled phosphorylase a. One unit of protein phosphatase activity is that amount of enzyme which catalyzes the release of 1 nmol of phosphate from ^32P-labeled substrate per min at 30° C.
Jurkat cells, a human transformed CD^4+ T cell line, were grown in grown in RPMI 1680 supplemented with 5% (v/v) fetal bovine serum at 37° C. in 95% air/5% CO2 in a humidified incubator. 2.4 liters of cells were collected by centrifugation at 4200 rpm in a low speed centrifuge for 10 minutes. The cells were homogenized in 80 ml of 50 mM Imidazole-Cl pH 7.2, 2 mM EGTA, 2 mM EDTA, 0.1% (v/v) 2-mercaptoethanol, 0.2 mM PMSF, 1 mM benzamidine, 4 μg/ml aprotinin, 4 μg/ml leupeptin, 4 μg/ml pepstatin, 0.1 mM TLCK, 0.1 mM TPCK, 1 mM sodium orthovanadate and 10% (v/v) glycerol by 40 strokes in a glass hand held homogenizer. The homogenate was centrifuged at 29000 rpm in a high speed centrifuge for 30 minutes. The supernatant (i.e the extract) was collected and loaded onto a DEAE Sepharose column (1.5×6 cm) equilibrated in 25 mM Imidazole-Cl pH 7.2, 0.2 mM EGTA, 0.1% (v/v) 2-mercaptoethanol, 0.1 mM PMSF, 1 mM benzamidine and 10% (v/v) glycerol (Buffer A). The column was washed with 50 ml of Buffer and then eluted with a 200 ml linear gradient of Buffer A to Buffer A plus 0.4 M NaCl. The eluted fractions were then assayed for phosphorylase phosphatase activity in the presence of 100 nM inhibitor-2 and 10 μg/ml of protamine. Two major peaks of phosphorylase phosphatase were observed. The first and second peak represent protein phosphatase-2A0 and protein phosphatase-2A1 respectively. […] The major activity eluting as a species of apparent molecular mass 300 kDa was collected, diluted four fold in Buffer A and loaded onto a poly-L-lysine Agarose Column (1.5×4 cm) equilibrated in Buffer A. The column was washed with 50 ml of Buffer A and then eluted with a 200 ml linear gradient of Buffer A to Buffer A plus 0.5 M NaCl. The active fractions eluting at ˜0.30 M NaCl salt concentration was pooled, concentrated by vacuum dialysis and stored at ^−20° C. in 50 mM Imidazole-Cl pH 7.2, 0.2 mM EGTA in the presence of 50% (v/v) glycerol. The highly purified enzyme consisted of the characteristic subunits of protein phosphatase-2A1, namely the A, B and C subunits. […] It is difficult to determine the activity of protein phosphatase-2A1 in CD^4+ T cell extract. However, assuming that it represented about 66 percent of total type 2A protein phosphatase activity in CD^4+ T cell extract, the specific activity of the enzyme in extract was estimated to be 0.3 unit/mg. […]
Target sequence in this assay (P67775 whole entry): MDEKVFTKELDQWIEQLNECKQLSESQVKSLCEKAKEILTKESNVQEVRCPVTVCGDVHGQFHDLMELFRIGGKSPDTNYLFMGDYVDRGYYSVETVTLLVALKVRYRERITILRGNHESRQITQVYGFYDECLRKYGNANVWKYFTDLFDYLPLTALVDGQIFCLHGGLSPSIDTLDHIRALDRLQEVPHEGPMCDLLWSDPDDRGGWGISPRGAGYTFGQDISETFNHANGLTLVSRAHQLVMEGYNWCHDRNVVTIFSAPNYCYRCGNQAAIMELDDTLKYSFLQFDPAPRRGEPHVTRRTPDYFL
Target sequence in this assay (P30153 whole entry partner): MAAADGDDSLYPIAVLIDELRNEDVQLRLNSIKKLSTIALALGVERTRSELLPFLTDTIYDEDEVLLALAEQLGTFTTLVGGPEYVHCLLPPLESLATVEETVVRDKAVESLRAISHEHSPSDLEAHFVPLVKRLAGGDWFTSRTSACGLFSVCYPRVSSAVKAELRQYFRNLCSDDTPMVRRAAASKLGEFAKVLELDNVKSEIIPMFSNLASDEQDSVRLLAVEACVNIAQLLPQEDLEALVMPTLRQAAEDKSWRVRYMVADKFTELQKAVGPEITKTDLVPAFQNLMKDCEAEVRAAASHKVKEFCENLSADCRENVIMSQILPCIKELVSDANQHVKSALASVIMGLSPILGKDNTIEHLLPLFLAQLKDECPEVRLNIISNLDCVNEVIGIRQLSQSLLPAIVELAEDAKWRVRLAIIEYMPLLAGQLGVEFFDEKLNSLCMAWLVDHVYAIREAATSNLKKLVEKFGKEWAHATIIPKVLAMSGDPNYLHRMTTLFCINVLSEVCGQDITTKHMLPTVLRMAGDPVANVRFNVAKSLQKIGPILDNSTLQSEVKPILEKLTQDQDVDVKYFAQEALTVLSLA
Target sequence in this assay (P63151 whole entry partner): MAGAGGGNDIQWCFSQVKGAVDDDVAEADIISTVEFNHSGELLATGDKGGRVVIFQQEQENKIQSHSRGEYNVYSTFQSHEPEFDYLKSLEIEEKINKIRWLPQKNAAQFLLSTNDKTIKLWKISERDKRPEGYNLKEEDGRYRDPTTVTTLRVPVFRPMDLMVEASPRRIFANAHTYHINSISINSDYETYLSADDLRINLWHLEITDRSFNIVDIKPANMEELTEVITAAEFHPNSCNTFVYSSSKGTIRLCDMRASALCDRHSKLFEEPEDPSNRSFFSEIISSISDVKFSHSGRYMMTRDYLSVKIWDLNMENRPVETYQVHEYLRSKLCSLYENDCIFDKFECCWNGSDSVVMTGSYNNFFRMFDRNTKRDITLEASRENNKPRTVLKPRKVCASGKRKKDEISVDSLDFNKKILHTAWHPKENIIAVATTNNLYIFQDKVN

protein phosphatase-2A1 [2] = target: T1, protein phosphatase-2A1; conditions: Tung 1997; Janoo 2005; cited from earlier work
Target sequence in this assay (P67775 whole entry): as the sequence (P67775 whole entry) above

Molecule	effect on protein phosphatase-2A1 from CD4+ T cells (protein phosphatase-2A1 [1])	activation of protein phosphatase-2A1 (protein phosphatase-2A1 [2])
C=C1[C@@H](O)[C@@H]2O[C@]3(CC[C@H](/C=C/[C@@H](C)[C@@H]4CC(C)=C[C@@]5(O[C@H](C[C@@](C)(O)C(=O)O)CC[C@H]5O)O4)O3)CC[C@H]2O[C@@H]1[C@@H](O)C[C@H](C)[C@H]1O[C@@]2(CCCCO2)CC[C@H]1C [okadaic acid, reference compound]	inhibited	–
full length HIV-1 Vpr: full length HIV-1 Vpr protein, tested in the literature	–	not to activate
protamine [reference compound]	activated	–
inhibitor-2: Protein phosphatase-1 inhibitor-2 purified from rabbit skeletal muscle (protein, UniProt P11845 2-205, looked up) Protein phosphatase inhibitor …: AASTASHRPIKGILKNKTSSTSSRVASAEQPRGSVDEELSKKSQKWDEMNILATYHPADKDYGLMKIDEPSTPYHSMIGDDDDAYSDTETTEAMTPDTLAKKLAAAEGSEPKYRIREQESSGEEDSDLSPEEREKKRQFEMKRKLHYNEGLNIKLARQLISKDLHDDEEDEEMSETADGESMNTEESNQGSTPSDQRQNKSQSS	not inhibited	–
